According to PMC3602154 (PLoS ONE, 2013):

How the values were obtained:
A4B4 = A4B4 (Rattus norvegicus, UniProt P09483+P12392); assay: PDSP radioligand binding, nicotinic receptor α4 ß4
Text: (§1) [17] and http://pdsp.med.unc.edu/UNC-CH%20Protocol%20Book.pdf.

Alpha1D = molecular target: T1, Alpha1D (Homo sapiens, UniProt P25100); assay: PDSP radioligand binding, adrenoceptor α1D
T1 sequence (P25100 1-572): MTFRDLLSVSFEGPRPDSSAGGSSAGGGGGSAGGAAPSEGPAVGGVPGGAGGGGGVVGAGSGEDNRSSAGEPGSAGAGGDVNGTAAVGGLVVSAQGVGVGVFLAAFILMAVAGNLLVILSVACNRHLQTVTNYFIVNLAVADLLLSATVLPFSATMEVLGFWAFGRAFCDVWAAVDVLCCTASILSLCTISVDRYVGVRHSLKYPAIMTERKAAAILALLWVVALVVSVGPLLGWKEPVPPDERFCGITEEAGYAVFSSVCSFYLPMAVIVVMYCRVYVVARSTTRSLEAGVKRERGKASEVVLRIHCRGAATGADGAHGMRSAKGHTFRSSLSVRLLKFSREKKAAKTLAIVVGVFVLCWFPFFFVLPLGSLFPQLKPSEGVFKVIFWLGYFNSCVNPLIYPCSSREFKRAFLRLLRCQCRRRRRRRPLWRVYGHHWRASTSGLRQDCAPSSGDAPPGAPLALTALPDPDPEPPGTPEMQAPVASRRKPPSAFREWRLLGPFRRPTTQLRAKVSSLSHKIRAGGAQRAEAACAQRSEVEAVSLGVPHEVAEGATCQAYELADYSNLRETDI
Text: as §1

Alpha2B = molecular target: T2, Alpha2B (Homo sapiens, UniProt P18089); assay: PDSP radioligand binding, adrenoceptor α2B
T2 sequence (P18089 1-450): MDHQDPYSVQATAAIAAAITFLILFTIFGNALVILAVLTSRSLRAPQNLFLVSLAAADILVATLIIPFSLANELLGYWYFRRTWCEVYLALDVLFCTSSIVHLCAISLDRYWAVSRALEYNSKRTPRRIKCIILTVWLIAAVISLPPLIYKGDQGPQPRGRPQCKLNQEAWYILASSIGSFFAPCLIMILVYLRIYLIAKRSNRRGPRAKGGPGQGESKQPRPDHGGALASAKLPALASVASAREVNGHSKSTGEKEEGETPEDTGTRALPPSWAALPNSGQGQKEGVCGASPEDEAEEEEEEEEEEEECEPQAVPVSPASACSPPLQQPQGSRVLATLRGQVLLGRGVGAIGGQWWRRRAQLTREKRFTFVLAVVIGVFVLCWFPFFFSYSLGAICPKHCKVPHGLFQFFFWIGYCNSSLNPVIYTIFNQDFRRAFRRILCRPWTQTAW
Text: as §1

Beta1 = Beta1 (Homo sapiens, UniProt P08588); assay: PDSP radioligand binding, adrenoceptor ß1
Beta1, sequence (P08588 whole entry): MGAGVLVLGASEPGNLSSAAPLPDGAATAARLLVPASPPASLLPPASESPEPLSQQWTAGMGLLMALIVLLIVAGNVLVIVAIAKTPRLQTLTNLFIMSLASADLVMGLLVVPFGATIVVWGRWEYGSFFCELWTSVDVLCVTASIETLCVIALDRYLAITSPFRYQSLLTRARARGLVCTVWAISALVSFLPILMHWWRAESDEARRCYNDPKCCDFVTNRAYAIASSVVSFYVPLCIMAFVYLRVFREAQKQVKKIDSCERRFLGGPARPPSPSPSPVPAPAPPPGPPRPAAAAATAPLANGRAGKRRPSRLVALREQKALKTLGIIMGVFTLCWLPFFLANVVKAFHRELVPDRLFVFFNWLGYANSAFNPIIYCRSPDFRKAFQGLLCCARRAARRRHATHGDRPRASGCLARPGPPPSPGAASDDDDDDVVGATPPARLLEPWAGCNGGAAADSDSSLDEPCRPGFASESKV
Text: as §1

D4 = molecular target: T3, D4 (Homo sapiens, UniProt P21917); assay: PDSP radioligand binding, dopamine receptor D4
T3 sequence (P21917 1-419): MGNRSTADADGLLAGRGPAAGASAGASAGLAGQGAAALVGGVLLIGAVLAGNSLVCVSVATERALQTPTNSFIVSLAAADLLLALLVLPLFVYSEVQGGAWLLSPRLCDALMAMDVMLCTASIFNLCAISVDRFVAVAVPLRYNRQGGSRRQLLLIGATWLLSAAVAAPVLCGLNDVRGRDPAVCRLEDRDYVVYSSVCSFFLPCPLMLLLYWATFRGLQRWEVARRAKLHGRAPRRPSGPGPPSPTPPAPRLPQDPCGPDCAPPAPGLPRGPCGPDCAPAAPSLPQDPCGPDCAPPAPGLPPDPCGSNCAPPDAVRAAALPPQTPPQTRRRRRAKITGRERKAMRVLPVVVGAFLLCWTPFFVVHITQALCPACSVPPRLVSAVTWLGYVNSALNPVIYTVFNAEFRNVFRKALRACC
Text: as §1

GABAA = assay: PDSP radioligand binding, GABA-A; conditions: Table S1; unit inferred
Text: as §1

KOR = KOR (Homo sapiens, UniProt P41145); assay: PDSP radioligand binding, opioid receptor KOR
KOR, sequence (P41145 whole entry): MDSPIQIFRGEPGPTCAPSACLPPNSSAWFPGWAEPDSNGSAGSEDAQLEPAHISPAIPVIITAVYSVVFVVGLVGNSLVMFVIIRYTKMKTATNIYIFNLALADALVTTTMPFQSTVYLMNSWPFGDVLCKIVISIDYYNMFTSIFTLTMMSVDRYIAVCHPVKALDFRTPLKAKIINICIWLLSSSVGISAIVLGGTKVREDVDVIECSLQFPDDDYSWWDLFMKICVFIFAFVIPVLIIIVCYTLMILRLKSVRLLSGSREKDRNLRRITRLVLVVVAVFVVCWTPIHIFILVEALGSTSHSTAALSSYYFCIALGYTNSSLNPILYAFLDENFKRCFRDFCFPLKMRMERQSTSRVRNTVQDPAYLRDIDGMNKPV
Text: as §1

M2 = molecular target: T4, M2 (Homo sapiens, UniProt P08172); assay: PDSP radioligand binding, muscarinic receptor M2
T4 sequence (P08172 1-466): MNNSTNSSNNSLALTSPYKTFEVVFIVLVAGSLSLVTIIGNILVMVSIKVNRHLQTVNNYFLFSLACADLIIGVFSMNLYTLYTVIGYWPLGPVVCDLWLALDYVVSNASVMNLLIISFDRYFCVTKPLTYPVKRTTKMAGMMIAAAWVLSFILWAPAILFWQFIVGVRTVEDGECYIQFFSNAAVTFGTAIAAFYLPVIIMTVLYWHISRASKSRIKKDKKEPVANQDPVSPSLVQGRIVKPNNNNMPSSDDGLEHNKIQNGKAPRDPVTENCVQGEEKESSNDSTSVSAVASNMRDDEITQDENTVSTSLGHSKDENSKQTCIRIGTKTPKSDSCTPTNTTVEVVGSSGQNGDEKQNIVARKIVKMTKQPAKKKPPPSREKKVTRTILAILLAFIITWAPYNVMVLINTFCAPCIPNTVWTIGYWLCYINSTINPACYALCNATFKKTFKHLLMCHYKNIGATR
Text: as §1

M3 = M3 (Homo sapiens, UniProt P20309); assay: PDSP radioligand binding, muscarinic receptor M3
M3, sequence (P20309 whole entry): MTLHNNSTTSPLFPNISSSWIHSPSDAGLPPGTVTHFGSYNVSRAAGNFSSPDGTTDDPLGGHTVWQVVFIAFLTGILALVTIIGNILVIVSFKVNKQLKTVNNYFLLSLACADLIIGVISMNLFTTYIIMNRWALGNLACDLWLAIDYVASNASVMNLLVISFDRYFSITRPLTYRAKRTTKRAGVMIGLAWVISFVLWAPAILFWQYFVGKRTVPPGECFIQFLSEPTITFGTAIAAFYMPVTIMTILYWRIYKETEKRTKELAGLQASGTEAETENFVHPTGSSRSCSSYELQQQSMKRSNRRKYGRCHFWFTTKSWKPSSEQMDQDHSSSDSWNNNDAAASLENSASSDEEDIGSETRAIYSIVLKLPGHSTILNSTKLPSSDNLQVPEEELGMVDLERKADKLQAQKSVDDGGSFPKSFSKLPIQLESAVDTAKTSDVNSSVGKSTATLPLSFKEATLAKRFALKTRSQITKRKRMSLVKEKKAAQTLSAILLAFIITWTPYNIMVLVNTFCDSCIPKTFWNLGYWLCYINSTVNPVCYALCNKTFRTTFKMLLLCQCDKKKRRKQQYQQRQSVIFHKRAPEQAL
Text: as §1

M5 = molecular target: T5, M5 (Homo sapiens, UniProt P08912); assay: PDSP radioligand binding, muscarinic receptor M5
T5 sequence (P08912 1-532): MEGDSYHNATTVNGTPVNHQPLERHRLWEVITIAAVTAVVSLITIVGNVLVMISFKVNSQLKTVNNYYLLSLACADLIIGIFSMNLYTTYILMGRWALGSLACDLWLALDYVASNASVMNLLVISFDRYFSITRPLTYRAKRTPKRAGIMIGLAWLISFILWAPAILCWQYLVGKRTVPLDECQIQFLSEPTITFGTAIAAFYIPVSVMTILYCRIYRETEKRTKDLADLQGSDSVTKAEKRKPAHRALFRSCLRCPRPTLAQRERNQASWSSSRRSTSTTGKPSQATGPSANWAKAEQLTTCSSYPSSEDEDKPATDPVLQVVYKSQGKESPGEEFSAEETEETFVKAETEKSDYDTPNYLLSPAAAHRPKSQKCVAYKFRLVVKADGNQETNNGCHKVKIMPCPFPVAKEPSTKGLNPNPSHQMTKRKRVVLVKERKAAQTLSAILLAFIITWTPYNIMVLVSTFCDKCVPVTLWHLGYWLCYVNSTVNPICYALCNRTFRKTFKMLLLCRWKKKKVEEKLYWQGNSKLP
Text: as §1

Measured: Ki

A4B4, sequence (P09483 31-630): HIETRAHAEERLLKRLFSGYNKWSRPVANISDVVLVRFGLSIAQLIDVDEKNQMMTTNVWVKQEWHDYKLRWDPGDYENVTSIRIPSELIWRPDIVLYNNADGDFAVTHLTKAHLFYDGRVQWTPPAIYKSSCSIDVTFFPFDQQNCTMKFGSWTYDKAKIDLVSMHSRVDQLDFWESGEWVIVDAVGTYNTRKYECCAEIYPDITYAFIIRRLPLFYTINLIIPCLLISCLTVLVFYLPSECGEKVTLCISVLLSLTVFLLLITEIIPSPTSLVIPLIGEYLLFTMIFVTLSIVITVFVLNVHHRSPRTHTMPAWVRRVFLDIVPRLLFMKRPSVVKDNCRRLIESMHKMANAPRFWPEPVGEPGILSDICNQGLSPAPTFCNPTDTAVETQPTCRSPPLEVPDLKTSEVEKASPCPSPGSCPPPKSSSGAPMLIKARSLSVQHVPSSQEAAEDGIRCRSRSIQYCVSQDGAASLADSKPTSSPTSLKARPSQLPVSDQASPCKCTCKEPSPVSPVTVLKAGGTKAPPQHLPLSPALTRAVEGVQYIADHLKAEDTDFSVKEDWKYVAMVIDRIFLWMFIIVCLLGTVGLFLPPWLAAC
A4B4, sequence (P12392 21-495): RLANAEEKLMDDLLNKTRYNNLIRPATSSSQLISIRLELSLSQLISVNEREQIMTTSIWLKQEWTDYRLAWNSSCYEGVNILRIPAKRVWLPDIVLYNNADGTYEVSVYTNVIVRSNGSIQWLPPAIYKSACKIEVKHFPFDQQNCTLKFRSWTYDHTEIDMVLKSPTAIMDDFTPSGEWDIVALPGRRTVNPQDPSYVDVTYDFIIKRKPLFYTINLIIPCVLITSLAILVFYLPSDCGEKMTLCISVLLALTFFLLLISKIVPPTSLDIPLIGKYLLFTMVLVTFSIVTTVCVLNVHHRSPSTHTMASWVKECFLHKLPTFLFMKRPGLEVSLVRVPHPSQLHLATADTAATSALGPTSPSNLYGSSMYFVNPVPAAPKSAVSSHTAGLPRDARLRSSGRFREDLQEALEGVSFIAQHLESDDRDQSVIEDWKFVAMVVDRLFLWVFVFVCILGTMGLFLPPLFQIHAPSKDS

CCNC1(c2cccc(OC)c2)CCCCC1=O (racemic) [Methoxetamine, (RS)-2-(ethylamino)-2-(3-methoxyphenyl)cyclohexanone]
> 10 µM: all assays above

COc1cccc(C2(N3CCCCC3)CCCCC2)c1 [3-MeO-PCP, 1-[1-(3-methoxyphenyl)cyclohexyl]piperidine]
> 10 µM: all assays above

COc1ccc(C2(N3CCCCC3)CCCCC2)cc1 [4-MeO-PCP, 1-[1-(4-methoxyphenyl)cyclohexyl]piperidine]
> 10 µM: all assays above
